Reference: ChEMBL document CHEMBL1155726, “Seven new sesquiterpene glycosides from the root bark of Dictamnus dasycarpus” (J Nat Prod, 2001)
Calls of active or inactive are those of the source. The rule behind the calls is not given here.

System: Splenocyte
Experiment: Immunomodulatory activity in mouse splenocyte assessed as stimulation of proliferation at 10 umole/L after 44 hrs by MTT assay in presence of ConA
Type: functional, cell-based

In the case of `CC(C)(O)[C@@H]1CC[C@]23CO[C@](C)(CC[C@@H]2O)[C@H]3[C@@H]1O[C@@H]1O[C@H](CO)[C@@H](O)[C@H](O)[C@H]1O`, the Activity is reported as “Active”.
